# Measured values taken from patent EP0195316A1, “Quinolonecarboxylic acid derivatives” (KYORIN PHARMACEUTICAL CO., LTD., priority 1985, dated 1986).
# Read-outs that look alike come from different tables or passages of the source.
# Key:
# Shigella sonnei IID 969 = assay: MIC, in vitro antibacterial activity (standard strains); type: cell-based; conditions: IID969; Shigella sonnei IID 969, 10^6 cells/ml, Gram -
# Description: (§1) Minimal inhibitory concentrations (MICs) were determined in accordance with the method recommended by Japan Society of Chemotherapy.
# S. pneumoniae IID 552 = assay: as above; type: cell-based; conditions: Streptococcus pneumoniae, IID552
# [1] = tested on: B. thetaiotaomicron (0661); assay: as above; type: cell-based; conditions: Bacteroides thetaiotaomicron
# [2] = tested on: Streptococcus pyogenes (S-8); assay: as above; type: cell-based; conditions: Streptococcus pyogenes
# [3] = tested on: Escherichia coli NIHJ JC-2; assay: as above; type: cell-based; conditions: NIHJJC2
# K. pneumoniae 1-220S = assay: as above; type: cell-based; conditions: Klebsiella pneumoniae, 1220S
# [4] = tested on: Alcaligenes faecalis 0104002; assay: as above; type: cell-based; conditions: Alcaligenes faecalis, 0104002
# [5] = tested on: Klebsiella pneumoniae KY(GN)6445; assay: as above; type: cell-based; conditions: Klebsiella pneumoniae
# C. perfringens KYA 13123 = assay: microbe, parasite or virus in culture; type: cell-based; conditions: Clostridium perfringens, KYA13123
# F. varium KYA 8501 = assay: MIC, in vitro antibacterial activity (standard strains); type: cell-based; conditions: Fusobacterium varium, KYA8501
# [6] = tested on: nalidixic acid-resistant Salmonella typhimurium TA98 strain (nal^r); assay: Mutagenicity, reverse mutation assay; conditions: 0.5 µg/plate, S9-mix +, positive control
# Excerpt: As for antibacterial agents, assessment of mutagenicity using bacteria is somewhat difficult because of their activity on the test bacteria.
# [7] = tested on: Proteus vulgaris IFO 3167; assay: MIC, in vitro antibacterial activity (standard strains); type: cell-based; conditions: Proteus vulgaris, IFO3167
# Pst. microns UPI 5464-1 = assay: as above; type: cell-based; conditions: Pst. microns UPI 5464-1, 10^6 cells/ml, Gram +
# P. aeruginosa IID 1210 = assay: In vivo antibacterial activity against systemic infections in mice; conditions: Pseudomonas aeruginosa
# Description: (§2) The infections were produced by intraperitoneal injection of suspension of the bacterial cells. The compounds were administered orally at an hour after the injection. Five male ICR mice were used for each dosage. […] The efficacy of the present compound are shown in Table 4 in comparison with those of the reference compounds.
# S. aureus Smith = assay: as above; conditions: Staphylococcus aureus
# Description: as §2
# E. coli ML 4707 = assay: as above; conditions: Escherichia coli
# Description: as §2
# S. pneumoniae S-4288 = assay: as above; conditions: Streptococcus pneumoniae
# Description: as §2
# Bacteroides fragilis 2 = assay: Experimental local infection with anaerobic bacteria in granuloma pouches in rats; type: in vivo; conditions: pouch exudate, Mean ± S.D. (n=3)
# Description: Under ether anesthesia, male Wistar rats (7 weeks old) were injected subcutaneously on the back with 20 ml of germ-free air (sterilized by membrane filtration, 0.45 µm pore size) by means of a syringe. Continuously, an inflammatory reaction was induced by injecting one ml of sterile croton oil solution (1 % in olive oil) into the formed air pouch. After 2 days, the air was removed. On the eighth day, 0.5 ml of Bacteroides fragilis 2 culture (10^6 CFU/ml) were injected into bore granuloma pouches. Each compound was administered orally or subcutaneously at 2 hours after infection. […] During experiment, intake of food and water was free. It was known that the activity of the existing quinolonecarboxylic acid compounds against obligate anaerobic bacteria was very weak. […] This property is also one of excellent characters of the present comound.
# Bacteroides sp. = assay: MIC, in vitro antibacterial activity (clinical isolates); type: cell-based; conditions: No. of strains 17
# P. mirabilis = assay: as above; type: cell-based; conditions: Proteus mirabilis, No. of strains 10
# M. morganii = assay: as above; type: cell-based; conditions: Morganella morganii, No. of strains 8
# Acinetobacter sp. = assay: as above; type: cell-based
# MR-S. aureus = assay: as above; type: cell-based; conditions: Staphylococcus aureus, No. of strains 46
# H. influenzae = assay: as above; type: cell-based; conditions: Haemophilus influenzae, No. of strains 26
# P. vulgaris = assay: as above; type: cell-based; conditions: Proteus vulgaris, No. of strains 6
# S. marcescens = assay: as above; type: cell-based; conditions: Serratia marcescens, No. of strains 20
# Alcaligenes sp. = assay: as above; type: cell-based; conditions: No. of strains 9
# S. pneumoniae = assay: as above; type: cell-based; conditions: Streptococcus pneumoniae
# Campylobacter jejuni = assay: as above; type: cell-based; conditions: No. of strains 20
# S. epidermidis = assay: as above; type: cell-based; conditions: Staphylococcus epidermidis, No. of strains 10
# B. catarrhalis = assay: as above; type: cell-based; conditions: Moraxella catarrhalis
# N. gonorrhoeae = assay: as above; type: cell-based; conditions: Neisseria gonorrhoeae, No. of strains 16
# S. pyogenes = assay: as above; type: cell-based; conditions: Streptococcus pyogenes
# E. coli = assay: as above; type: cell-based; conditions: Escherichia coli, No. of strains 25
# Description: as §1
# S. aureus = assay: as above; type: cell-based; conditions: Staphylococcus aureus, No. of strains 21
# Description: as §1
# P. pneumoniae = assay: as above; type: cell-based; conditions: No. of strains 25
# Description: as §1
# E. cloacae = assay: as above; type: cell-based; conditions: Enterobacter cloacae
# P. aeruginosa = assay: as above; type: cell-based; conditions: Pseudomonas aeruginosa
# C. freundii = assay: as above; type: cell-based; conditions: Citrobacter freundii, No. of strains 9
# N. meningitidis = assay: as above; type: cell-based; conditions: Neisseria meningitidis, No. of strains 3
# E. faecalis = assay: as above; type: cell-based; conditions: Enterococcus faecalis, No. of strains 5
# P. maltophilia = assay: as above; type: cell-based; conditions: Stenotrophomonas maltophilia, No. of strains 9
# [8] = IID1210, P. aeruginosa IID 1210 systemic infection (i.p.), male ICR mice, oral administration an hour after infection, read-out: ED50
# [9] = ML4707, E. coli ML 4707 systemic infection (i.p.), male ICR mice, oral administration an hour after infection, read-out: ED50
# [10] = S4288, S. pneumoniae S-4288 systemic infection (i.p.), male ICR mice, oral administration an hour after infection, read-out: ED50
smiles,measurement,setting,value
"O=C(O)c1cn(C2CC2)c2c(F)c(N3CCNCC3)c(F)cc2c1=O [Ref.1, 1-Cyclopropyl-6,8-difluoro-1,4-dihydro-4-oxo-7-(1-piperazinyl)-3-quinoline-carboxylic acid]",MIC,Shigella sonnei IID 969,≤ 6 ng/mL
same,MIC,S. pneumoniae IID 552,0.78 µg/mL
same,MIC,[1],3.13 µg/mL
same,MIC,[2],0.39 µg/mL
same,MIC,[3]; Escherichia coli,≤ 6 ng/mL
same,MIC,K. pneumoniae 1-220S,0.05 µg/mL
same,MIC,[4],0.025 µg/mL
same,MIC,[5],0.0125 µg/mL
same,MIC,C. perfringens KYA 13123,0.39 µg/mL
same,MIC,F. varium KYA 8501,3.13 µg/mL
"Nc1ccc2cc3ccccc3cc2c1 [Example 2AA, 2-Aminoanthracene]",His^+ revertants per plate,[6],277
"O=C(O)c1cn(C2CC2)c2cc(N3CCNCC3)c(F)cc2c1=O [CFLX, Ciprofloxacin]",MIC,Shigella sonnei IID 969,≤ 6 ng/mL
same,MIC,[7],≤ 6 ng/mL
same,MIC,"[3]; Escherichia coli NIHJ JC-2, 10^6 cells/ml, Gram -, read-out: MIC",≤ 6 ng/mL
same,MIC,K. pneumoniae 1-220S,0.05 µg/mL
same,MIC,Pst. microns UPI 5464-1,0.2 µg/mL
same,ED50,"P. aeruginosa IID 1210; IID1210, po",4.5 mg/kg
same,ED50,S. aureus Smith; po,31 mg/kg
same,ED50,"E. coli ML 4707; ML4707, po",1.5 mg/kg
same,ED50,"S. pneumoniae S-4288; S4288, po",> 100 mg/kg
"CCC[C@@H]1C[C@@H](C(=O)N[C@@H]([C@H]2O[C@H](SC)[C@H](O)[C@@H](O)[C@H]2O)[C@H](C)Cl)N(C)C1 [CLDM, clindamycin]",Viable cells count (log) / ml,"Bacteroides fragilis 2; 25 mg/kg, s.c., 6 hr",4.6 ± 0.058 (log) / ml
same,Viable cells count (log) / ml,"Bacteroides fragilis 2; 25 mg/kg, s.c., 24 hr",6.4 ± 0.38 (log) / ml
"CCn1cc(C(=O)O)c(=O)c2cc(F)c(N3CCNCC3)cc21 [NFLX, Norfloxacin]",MIC,Bacteroides sp.,50 µg/mL
same,MIC,P. mirabilis,0.1 µg/mL
same,MIC,M. morganii,0.05 µg/mL
same,MIC,Acinetobacter sp.; Acinetobacter,12.5 µg/mL
same,MIC,MR-S. aureus,25 µg/mL
same,MIC,H. influenzae,0.2 µg/mL
same,MIC,P. vulgaris,0.05 µg/mL
same,MIC,S. marcescens,0.1 µg/mL
same,MIC,Alcaligenes sp.,100 µg/mL
same,MIC,S. pneumoniae,12.5 µg/mL
same,MIC,Campylobacter jejuni,0.78 µg/mL
same,MIC,S. epidermidis,0.78 µg/mL
same,MIC,B. catarrhalis,1.56 µg/mL
same,MIC,N. gonorrhoeae,0.1 µg/mL
same,MIC,S. pyogenes,1.56 µg/mL
same,MIC,E. coli,0.1 µg/mL
same,MIC,S. aureus,1.56 µg/mL
same,MIC,P. pneumoniae,0.78 µg/mL
same,MIC,E. cloacae,0.1 µg/mL
same,MIC,P. aeruginosa,1.56 µg/mL
same,MIC,C. freundii,0.39 µg/mL
same,MIC,N. meningitidis,0.05 µg/mL
same,MIC,E. faecalis,6.25 µg/mL
same,MIC,P. maltophilia,25 µg/mL
same,ED50,P. aeruginosa IID 1210; [8],18.9 mg/kg
same,ED50,E. coli ML 4707; [9],8.9 mg/kg
same,ED50,S. pneumoniae S-4288; [10],> 100 mg/kg
"CO[C@@]1(NC(=O)Cc2cccs2)C(=O)N2C(C(=O)O)=C(COC(N)=O)CS[C@@H]21 [CFX, cefoxitin]",Viable cells count (log) / ml,"Bacteroides fragilis 2; 50 mg/kg, s.c., 6 hr",3.9 ± 0.25 (log) / ml
same,Viable cells count (log) / ml,"Bacteroides fragilis 2; 50 mg/kg, s.c., 24 hr",6.3 ± 0.31 (log) / ml
"CC1COc2c(N3CCN(C)CC3)c(F)cc3c(=O)c(C(=O)O)cn1c23 (stereo not drawn) [OFLX, Ofloxacin]",MIC,Bacteroides sp.,3.13 µg/mL
same,MIC,P. mirabilis,0.2 µg/mL
same,MIC,M. morganii,0.1 µg/mL
same,MIC,"Acinetobacter sp.; clinical isolates Acinetobacter sp., No. of strains 13, read-out: MIC",3.13 µg/mL
same,MIC,MR-S. aureus,1.56 µg/mL
same,MIC,H. influenzae,0.1 µg/mL
same,MIC,P. vulgaris,0.1 µg/mL
same,MIC,S. marcescens,0.2 µg/mL
same,MIC,Alcaligenes sp.,6.25 µg/mL
same,MIC,"S. pneumoniae; clinical isolates S. pneumoniae, No. of strains 6, read-out: MIC",3.13 µg/mL
same,MIC,Campylobacter jejuni,0.39 µg/mL
same,MIC,S. epidermidis,0.39 µg/mL
same,MIC,"B. catarrhalis; clinical isolates B. catarrhalis, No. of strains 21, read-out: MIC",0.2 µg/mL
same,MIC,N. gonorrhoeae,0.05 µg/mL
same,MIC,"S. pyogenes; clinical isolates S. pyogenes, No. of strains 6, read-out: MIC",1.56 µg/mL
same,MIC,E. coli,0.1 µg/mL
same,MIC,S. aureus,0.39 µg/mL
same,MIC,P. pneumoniae,0.78 µg/mL
same,MIC,E. cloacae,0.1 µg/mL
same,MIC,"P. aeruginosa; clinical isolates P. aeruginosa, No. of strains 27, read-out: MIC",3.13 µg/mL
same,MIC,C. freundii,0.39 µg/mL
same,MIC,N. meningitidis,0.025 µg/mL
same,MIC,E. faecalis,3.13 µg/mL
same,MIC,P. maltophilia,6.25 µg/mL
same,ED50,P. aeruginosa IID 1210; [8],12.1 mg/kg
same,ED50,"S. aureus Smith; S. aureus Smith systemic infection (i.p.), male ICR mice, oral administration an hour after infection, read-out: ED50",17 mg/kg
same,ED50,E. coli ML 4707; [9],2.1 mg/kg
same,ED50,S. pneumoniae S-4288; [10],> 100 mg/kg
"Cc1ncc([N+](=O)[O-])n1CCO [MND, metronidazole]",Viable cells count (log) / ml,"Bacteroides fragilis 2; 50 mg/kg, p.o., 6 hr",5.2 ± 0.10 (log) / ml
same,Viable cells count (log) / ml,"Bacteroides fragilis 2; 50 mg/kg, p.o., 24 hr",5.7 ± 0.60 (log) / ml
